This is an account of results in the SangsterLogP compilation.

The series can be described thus: method code SF-AS/HPLC, from DOI: 10.1039/a908863f.

As usually defined, the logP is a log measure of how a compound divides between an organic and an aqueous phase. Compound `C=CC(=O)OCCOCCOC(=O)C=C` returned a log partition coefficient (logP) of 0.79. With `C=CC(=O)OCCOCCOCCOC(=O)C=C` the figure was 0.65; with `C=CC(=O)OCCOCCOCCOCCOC(=O)C=C`, 0.47; with `C=CC(=O)OC(C)COc1ccc(C(C)(C)c2ccc(OCC(C)OC(=O)C=C)cc2)cc1` (stereo not drawn), 6.1. `C=CC(=O)OCC(COC(=O)C=C)(COC(=O)C=C)COC(=O)C=C` displayed a logP of 2.23.

With `C=CC(=O)OCCOCCO`, the logP was -0.3. With `C=CC(=O)OCCCCCCCCCC` the figure was 5.46; with `C=CC(=O)Oc1ccccc1`, 1.94. Next, `C=CC(=O)OCCCOC(=O)C=C`: 0.87; `C=CC(=O)OCCCCCCCCCCCCCCCCCC`: 7.1. The compound `C=CC(=O)OCCCCCCOC(=O)C=C` had a logP of 3.08. Consider `C=CC(=O)OCC(C)(C)COC(=O)C=C`, for which the logP turned out to be 2.5. The compound `C=CC(=O)OCC(CC)(COC(=O)C=C)COC(=O)C=C` displayed a logP of 2.75.
